Experimental data published in patent US9518038B2, “Condensation product of theanine derivative and carboxylic acid coumarin derivative, its intermediate, preparation method and use thereof” (SHANDONG YINGDONG YINGHAO BIOTECHNOLOGY, INC., priority 2012, dated 2016).

Tests used:
[1] = tested on: human cervical cancer cells Hela xenograft; experiment: In-vivo growth of Hela xenografts in nude mice; set-up: species or system BALB/c nude mice; details: Mus musculus, ip, vs DMSO solvent control, read-out: Curative effect (inhibition rate %) of tumor weight; for inhibition in vivo at 60 mg/kg: 60 mg/kg intraperitoneal once a day; for inhibition in vivo at 90 mg/kg: 90 mg/kg intraperitoneal once a day
Method: RPMI1640 and DMEM culture solutions: Hyclone Company; inactivated fetal bovine serum: Hyclone Company, preserved at −20° C.; trypsin: Amersco Company; and 0.4% trypan blue: Sigma Company;
(3) Observation of growth of tumors in nude mice: the activities (including food intake, traits of urine and stool, mental state and the like) of the nude mice and the tumor growth time and growth situation of the transplanted tumors were observed every day, the body weight and the size of the tumors were measured once every 2-3 days. The long diameter a and the short diameter b (mm) of each tumor were measured by a vernier caliper to calculate the volume, wherein the volume V=π1/2·ab^2 (mm^3);
(4) sacrifice of animals: the mice were anesthetized and photoed after treatment experiments; the nude mice were sacrificed by breaking neck, the tumor tissues were stripped under sterile conditions and the weight of the tumors was weighed; and the effects of the drugs on pathology and toxicity of the various organs and tissues were detected.

[2] = tested on: human liver cancer cells SMMC7721; experiment: MTT growth inhibition, SMMC7721 cells; format: cell-based; details: SMMC-7721, S-7721 (SMMC7721), 72 h after treatment, read-out: Drug concentration (IC50) at which 50% cancer cells survived
From the text: (§1) Cell lines and cell culture: human lung cancer cells A549 and H460, human breast cancer cells MCF-7 and MDA-MB-231, human gastric cancer cells BGC-823, human prostate cancer cells PC-3, human chronic leukemia cells K562, human lymphoma cells U937, human liver cancer cells SMMC7721 and HepG2, human colon cancer cells HT29, human pancreatic cancer cells PANC-1 and BxPC3, human cervical cancer Hela cell lines, human brain tumor cells Daoy, human neuroma cells D54 and human oral epidermoid cancer cells KBV200 line with strong drug resistance, mouse melanoma cells B16, and highly metastatic Lewis lung cancer cell lines were purchased from American Type Culture Collection of the U.S. These cells were cultured with DMEM and RPMI-1640 culture solutions separately.
(§2) The procedure was as follows:
(§3) (1) 0.25% trypsin was used to digest cancer cells in a logarithmic growth phase to prepare a single-cell suspension, the concentration of cells was adjusted to 5×10^4/mL, and the adjusted suspension was inoculated into a 96-well culture plate with 100 μl per well;
(§4) (2) The culture plate was transferred into a 37° C. incubator with a saturated humidity and 5% of CO2 and cultured for 24 h; the compounds and the intermediates thereof obtained in embodiments 1-7 and the compound as represented by formula (IIIa) or the positive control anti-cancer drug with the concentration of 1-1000 μM/L were added to enable the final concentration to be 0.1-1500 μM/L. Control wells (only added with 200 μl of cell suspension) and drug-free blank control wells (containing the solvent of 0.01% DMSO) were set, each group included 8 wells, and the plate was placed into the 37° C. incubator with saturated humidity and 5% of CO2 for culturing;
(§5) (3) The 96-well plate was taken out at 48 h and 72 h after dosing, the original culture medium was carefully removed by suction, 100 μl of serum-free DMEM culture medium and 10 μl of MTT (5 mg/mL) solution were added in each well. The plate was continuously cultured for another 4 h and then the culture was terminated;
(§6) (4) The supernatant in the wells was carefully removed by suction, each well was added with 150 μl of DMSO and shaked at room temperature for 10-15 min to fully dissolve crystals.
(§7) (5) Colorimetric analysis: the wavelength was selected as 570 nm, the light absorbance (A value) of each well was determined on the microplate reader and the results were recorded; the experiment was repeated for three times;
(§8) (6) the experimental results were calculated according to the following formula: relative survival rate=(A value of each experimental group/A value of cell control group)×100%
(§9) Calculation of median-effect concentration (IC50, namely the drug concentration at which the inhibition rate is 50%, also known as half inhibitory concentration):
(§10) IC50 of the detected component was calculated by using a regression equation.

[3] = tested on: human cervical cancer Hela cell lines; experiment: MTT growth inhibition, Hela cells; format: cell-based; details: Homo sapiens, 72 h after treatment, read-out: Drug concentration (IC50) at which 50% cancer cells survived
From the text: as §1, §2, §3, §4, §5, §6, §7, §8, §9, §10

p21 = experiment: Western Blotting, increase of p21 level; format: cell-based; details: liver cancer cells, Lewis lung cancer cells and other cancer cell lines and tumor tissue protein lysates, 48 h treatment, read-out: Effective concentration to increase p21 by 50%
From the text: (§11) Antibodies: primary antibodies of VEGFR, EGFR, c-Met, K-Ras, H-Ras, Akt, NF-κB, Cyclin D1, ER-alpha, Dvl-1, Dvl-2, Dvl-3, MMP-9, MMP2, β-catenin, Bcl-2, Bax, p53, p21, E-cadherin and Caspase3 protein, purchased from American Cell Signaling Technology Company and Santa Cruz Technology Company; and H3 acetylation, H4 acetylation and HDAC (HDAC3, HDAC4 and the like) Antibody Sample Kits, purchased from Cell Signaling Technology Company of the U.S.
(§12) (3) polyacrylamide gel electrophoresis (SDS-PAGE): an equal amount of protein lysate sample was used to separate protein, film transfer, and blocking, treated with appropriate primary antibodies and secondary antibodies in sequence, and the film was washed, then the color was developed with ECL kit, and a blot protein band was detected by exposure of an X-ray film; and a Gel-Pro Analyzer was used for quantitative analysis of gray degree, optical density value of the control group and the drug treatment group in various concentration were respectively compared with that of internal reference, the obtained ratios were respectively compared with the control group, and the protein expression level was semi-quantified.

H-Ras = experiment: Western Blotting, H-Ras level; format: cell-based; details: human liver cancer cells, Lewis lung cancer cells and other cancer cell lines and tumor tissues, read-out: Effective concentration (IC50) for inhibition of H-Ras
From the text: as §11, §12

[4] = Fluorescent imaging in vivo and in vitro; format: physicochemical; details: 60 mg/kg body weight/0.2 ml
Method: Fluorescent images and wavelength ranges of the compounds as obtained in embodiments 1-7 were determined according to the literature method (Chen Y, et al., 2-(3-{1-Carboxy-5-[(6-[18F]fluoro-pyridine-3-carbonyl)-amino]-pentyl}-ureido)-pentanedioic acid, [18F]DCFPyL, a PSMA-based PET imaging agent for prostate cancer. Clin Cancer Res, 2011, 17(24):7645-53), and the results were shown in Table 3 and FIG. 1.
2. Experimental procedure: For in-vitro fluorescent imaging and detection: the compounds Ia-Ih as obtained in embodiments 1-7 were prepared in 1.5 ml plastic centrifugal tubes into a solution with the concentration of 60 mg/0.2 ml, fluorescent signals and images were respectively detected and recorded with a multifunctional microplate reader and an animal in-vivo imaging instrument under the following excitation and emission wavelength conditions, and the obtained results were shown in Table 3 and FIG. 1 (small test tube photos); and for the detection of fluorescent images in-vivo: after 16 h of fasting treatment of the experimental animals (while drinking water was normally supplied), solutions of the compounds Ia-Ih as obtained in embodiments 1-7 were prepared according to a concentration of 60 mg/kg body weight/0.2 ml, and intraperitoneally administered to the animal, the fluorescent images were detected and recorded with the animal in-vivo imaging instrument under the following excitation and emission wavelength conditions, the obtained results were shown in FIG. 1 (animal in-vivo imaged photos); wherein, the experimental excitation wavelength range was 360 nm-590 nm; and the detection wavelength range was 410 nm-700 nm.

Compound	inhibition in vivo at 60 mg/kg [1] [%]	inhibition in vivo at 90 mg/kg [1] [%]	IC50 [2] [µM]	IC50 [3] [µM]	EC50 (p21) [µM]	IC50 (H-Ras) [µM]	Emission (fluorescent wavelength range detectable in vivo and in vitro) [4]	Excitation (fluorescent wavelength range detectable in vivo and in vitro) [4]
CCNC(=O)CC[C@H](N)C(=O)OC [Compound IIa, theanine methyl ester]	38.7	38.7	230	330	–	–	–	–
CCNC(=O)CCC(NC(=O)c1cc2cc([N+](=O)[O-])ccc2oc1=O)C(=O)OCC (stereo in doubt) [Compound If, (R)-2-(6-nitro-2-oxo-2H-benzopyran-3-carboxamido)-5-ethylamino-5-oxo-pentanoic acid ethyl ester]	50.9	66.8	61	71	< 65	< 55	430-650 nm	360-610 nm
CCNC(=O)CC[C@@H](NC(=O)c1cc2cc(Br)cc(Br)c2oc1=O)C(=O)OCC [Compound Ih, (R)-2-(6,8-dibromo-2-oxo-2H-benzopyran-3-carboxamido)-5-ethylamino-5-oxo-pentanoic ethyl ester]	62.9	72.6	86	58	< 100	< 65	430-690 nm	360-610 nm
CCNC(=O)CCC(NC(=O)c1cc2ccccc2oc1=O)C(=O)OC (stereo not drawn) [Compound Ia, methyl 5-ethylamino-5-oxo-2-(2-oxo-2H-benzopyran-3-carboxamido)pentanoate]	54.7	62.9	75 ± 30	64 ± 20	< 125	< 85	430-650 nm	360-610 nm
CCNC(=O)CC[C@@H](NC(=O)c1cc2cc(Cl)ccc2oc1=O)C(=O)OCC [Compound Ic, (R)-2-(6-CI-2-oxo-2H-benzopyran-3-carboxamido)-5-ethylamino-5-oxo-pentanoic acid ethyl ester]	53.7	65.8	75	350	< 100	< 65	430-670 nm	360-610 nm
CCNC(=O)CCC(NC(=O)c1cc2ccccc2oc1=O)C(=O)OCC (stereo not drawn) [Compound Ib, ethyl 5-ethylamino-5-oxo-2-(2-oxo-2H-benzopyran-3-carboxamido)pentanoate]	53.9	63.8	17	53	< 120	< 75	430-650 nm	360-610 nm
CCNC(=O)CCC(NC(=O)c1cc2cc(F)ccc2oc1=O)C(=O)OCC (stereo in doubt) [Compound Ie, (R)-2-(6-F-2-oxo-2H-benzopyran-3-carboxamido)-5-ethylamino-5-oxo-pentanoic acid ethyl ester]	60.7	70.5	61	71	< 100	< 60	430-650 nm	360-610 nm
CCNC(=O)CC[C@H](N)C(=O)OCC [Compound IIb, theanine ethyl ester]	41.7	41.7	400	500	–	–	–	–
CCNC(=O)CC[C@@H](NC(=O)c1cc2cc(Cl)cc(Cl)c2oc1=O)C(=O)OCC [Compound Ig, (R)-2-(6,8-dichloro-2-oxo-2H-benzopyran-3-carboxamido)-5-ethylamino-5-oxo-pentanoic ethyl ester]	56.7	70.3	78	66	< 70	< 65	430-690 nm	360-610 nm
CCNC(=O)CC[C@@H](NC(=O)c1cc2cc(Br)ccc2oc1=O)C(=O)OCC [Compound Id, (R)-2-(6-Br-2-oxo-2H-benzopyran-3-carboxamido)-5-ethylamino-5-oxo-pentanoic acid ethyl ester]	57.9	71.9	65	75	< 100	< 60	430-670 nm	36-610 nm
